Source: PubChem BioAssay AID1259407 (Chemical Carcinogenesis Research Information System (CCRIS), 2018)
Active and inactive are the calls of the source. How the calls were made is not given here.

System: CCRIS mutagenicity, Ames/micronucleus/aberration tests
Assay: CCRIS mutagenicity studies
[1] = Test System: AMES SALMONELLA TYPHIMURIUM, Strain/Indicator: TA98, Metabolic Activation: NONE, Method: PREINCUBATION
[2] = Test System: AMES SALMONELLA TYPHIMURIUM, Strain/Indicator: TA98, Metabolic Activation: RAT, LIVER, S-9, AROCLOR 1254, Method: PREINCUBATION
[3] = Test System: AMES SALMONELLA TYPHIMURIUM, Strain/Indicator: TA100, Metabolic Activation: NONE, Method: PREINCUBATION
[4] = Test System: AMES SALMONELLA TYPHIMURIUM, Strain/Indicator: TA100, Metabolic Activation: NONE, Method: STANDARD PLATE
[5] = Test System: AMES SALMONELLA TYPHIMURIUM, Strain/Indicator: TA100, Metabolic Activation: RAT, LIVER, S-9, AROCLOR 1254, Method: PREINCUBATION
[6] = Test System: AMES SALMONELLA TYPHIMURIUM, Strain/Indicator: TA102, Metabolic Activation: NONE, Method: PREINCUBATION
[7] = Test System: AMES SALMONELLA TYPHIMURIUM, Strain/Indicator: TA1535, Metabolic Activation: NONE, Method: PREINCUBATION

With `Cc1ccco1` the mutagenic call (Test System: AMES SALMONELLA TYPHIMURIUM, Strain/Indicator: TA97, Metabolic Activation: NONE, Method: PREINCUBATION) was “inactive; negative”, the mutagenic call (Test System: AMES SALMONELLA TYPHIMURIUM, Strain/Indicator: TA98, Metabolic Activation: HAMSTER, LIVER, S-9, AROCLOR 1254 (10%), Method: PREINCUBATION) was “inactive; negative” and the mutagenic call (Test System: AMES SALMONELLA TYPHIMURIUM, Strain/Indicator: TA98, Metabolic Activation: HAMSTER, LIVER, S-9, AROCLOR 1254 (30%), Method: PREINCUBATION) was “inactive; negative”. The mutagenic call [1] was “inactive; negative”, the mutagenic call (Test System: AMES SALMONELLA TYPHIMURIUM, Strain/Indicator: TA98, Metabolic Activation: NONE, Method: STANDARD PLATE) was “inactive; negative” and the mutagenic call (Test System: AMES SALMONELLA TYPHIMURIUM, Strain/Indicator: TA98, Metabolic Activation: RAT, LIVER, S-9, AROCLOR 1254 (10%), Method: PREINCUBATION) was “inactive; negative”. The mutagenic call (Test System: AMES SALMONELLA TYPHIMURIUM, Strain/Indicator: TA98, Metabolic Activation: RAT, LIVER, S-9, AROCLOR 1254 (30%), Method: PREINCUBATION) was “inactive; negative”, the mutagenic call [2] was “inactive; negative” and the mutagenic call (Test System: AMES SALMONELLA TYPHIMURIUM, Strain/Indicator: TA98, Metabolic Activation: S-9, Method: STANDARD PLATE) was “inactive; negative”. For the same compound, the mutagenic call (Test System: AMES SALMONELLA TYPHIMURIUM, Strain/Indicator: TA100, Metabolic Activation: HAMSTER, LIVER, S-9, AROCLOR 1254 (10%), Method: PREINCUBATION) was “inactive; negative”, the mutagenic call (Test System: AMES SALMONELLA TYPHIMURIUM, Strain/Indicator: TA100, Metabolic Activation: HAMSTER, LIVER, S-9, AROCLOR 1254 (30%), Method: PREINCUBATION) was “inactive; negative” and the mutagenic call [3] was “inactive; negative”. For the same compound, the mutagenic call [4] was “inactive; negative”, the mutagenic call (Test System: AMES SALMONELLA TYPHIMURIUM, Strain/Indicator: TA100, Metabolic Activation: RAT, LIVER, S-9, AROCLOR 1254 (10%), Method: PREINCUBATION) was “inactive; negative” and the mutagenic call (Test System: AMES SALMONELLA TYPHIMURIUM, Strain/Indicator: TA100, Metabolic Activation: RAT, LIVER, S-9, AROCLOR 1254 (30%), Method: PREINCUBATION) was “inactive; negative”. The mutagenic call [5] was “inactive; negative”, the mutagenic call (Test System: AMES SALMONELLA TYPHIMURIUM, Strain/Indicator: TA100, Metabolic Activation: S-9, Method: STANDARD PLATE) was “inactive; negative” and the mutagenic call (Test System: AMES SALMONELLA TYPHIMURIUM, Strain/Indicator: TA102, Metabolic Activation: HAMSTER, LIVER, S-9, AROCLOR 1254 (10 OR 30%), Method: PREINCUBATION) was “inactive; negative”. For the same compound, the mutagenic call [6] was “inactive; negative”, the mutagenic call (Test System: AMES SALMONELLA TYPHIMURIUM, Strain/Indicator: TA102, Metabolic Activation: RAT, LIVER, S-9, AROCLOR 1254 (10%), Method: PREINCUBATION) was “inactive; negative” and the mutagenic call (Test System: AMES SALMONELLA TYPHIMURIUM, Strain/Indicator: TA102, Metabolic Activation: RAT, LIVER, S-9, AROCLOR 1254 (30%), Method: PREINCUBATION) was “inactive; negative”. The mutagenic call (Test System: AMES SALMONELLA TYPHIMURIUM, Strain/Indicator: TA102, Metabolic Activation: RAT, LIVER, S-9, AROCLOR 1254, Method: PREINCUBATION) was “inactive; negative”, the mutagenic call (Test System: AMES SALMONELLA TYPHIMURIUM, Strain/Indicator: TA104, Metabolic Activation: HAMSTER, LIVER, S-9, AROCLOR 1254 (5%), Method: PREINCUBATION) was “inactive; negative” and the mutagenic call (Test System: AMES SALMONELLA TYPHIMURIUM, Strain/Indicator: TA104, Metabolic Activation: HAMSTER, LIVER, S-9, AROCLOR 1254 (10 OR 30%), Method: PREINCUBATION) was “inactive; negative”. The mutagenic call (Test System: AMES SALMONELLA TYPHIMURIUM, Strain/Indicator: TA104, Metabolic Activation: NONE, Method: PREINCUBATION) was “inactive; negative”, the mutagenic call (Test System: AMES SALMONELLA TYPHIMURIUM, Strain/Indicator: TA104, Metabolic Activation: RAT, LIVER, S-9, AROCLOR 1254 (5%), Method: PREINCUBATION) was “inactive; negative” and the mutagenic call (Test System: AMES SALMONELLA TYPHIMURIUM, Strain/Indicator: TA104, Metabolic Activation: RAT, LIVER, S-9, AROCLOR 1254 (10 OR 30%), Method: PREINCUBATION) was “inactive; negative”. For the same compound, the mutagenic call (Test System: AMES SALMONELLA TYPHIMURIUM, Strain/Indicator: TA1535, Metabolic Activation: HAMSTER, LIVER, S-9, AROCLOR 1254 (10 OR 30%), Method: PREINCUBATION) was “inactive; negative”, the mutagenic call [7] was “inactive; negative” and the mutagenic call (Test System: AMES SALMONELLA TYPHIMURIUM, Strain/Indicator: TA1535, Metabolic Activation: RAT, LIVER, S-9, AROCLOR 1254 (10 OR 30%), Method: PREINCUBATION) was “inactive; negative”.
For `Fc1c(F)c(Cl)c(F)c(Cl)c1F`, the mutagenic call [1] was “inactive; negative”, the mutagenic call [2] was “inactive; negative” and the mutagenic call [3] was “inactive; negative”. For the same compound, the mutagenic call [5] was “inactive; negative”, the mutagenic call [7] was “inactive; negative” and the mutagenic call (Test System: AMES SALMONELLA TYPHIMURIUM, Strain/Indicator: TA1535, Metabolic Activation: RAT, LIVER, S-9, AROCLOR 1254, Method: PREINCUBATION) was “inactive; negative”. For the same compound, the mutagenic call (Test System: AMES SALMONELLA TYPHIMURIUM, Strain/Indicator: TA1537, Metabolic Activation: NONE, Method: PREINCUBATION) was “inactive; negative”, the mutagenic call (Test System: AMES SALMONELLA TYPHIMURIUM, Strain/Indicator: TA1537, Metabolic Activation: RAT, LIVER, S-9, AROCLOR 1254, Method: PREINCUBATION) was “inactive; negative” and the mutagenic call (Test System: AMES SALMONELLA TYPHIMURIUM, Strain/Indicator: TA1538, Metabolic Activation: NONE, Method: PREINCUBATION) was “inactive; negative”. The mutagenic call (Test System: AMES SALMONELLA TYPHIMURIUM, Strain/Indicator: TA1538, Metabolic Activation: RAT, LIVER, S-9, AROCLOR 1254, Method: PREINCUBATION) was “inactive; negative”, the mutagenic call (Test System: CHINESE HAMSTER OVARY, Strain/Indicator: CHO-K1-BH4 (HGPRT)/6-THIOGUANINE, Metabolic Activation: NONE, Method: SUSPENSION/PLATE) was “inactive; negative” and the mutagenic call (Test System: CHINESE HAMSTER OVARY, Strain/Indicator: CHO-K1-BH4 (HGPRT)/6-THIOGUANINE, Metabolic Activation: RAT, LIVER, S-9, AROCLOR 1254, Method: SUSPENSION/PLATE) was “inactive; negative”.
With `c1ccc2cc3c(cc2c1)c1c(c2ccccc23)O1` the mutagenic call [4] was “active; positive”.
`Cc1ccc2nc3c(ccc4ccccc43)c(C)c2c1` was tested, and the mutagenic call (Test System: AMES SALMONELLA TYPHIMURIUM, Strain/Indicator: TA97A, Metabolic Activation: NONE, Method: PREINCUBATION) was “inactive; negative”, the mutagenic call [1] was “inactive; negative” and the mutagenic call (Test System: AMES SALMONELLA TYPHIMURIUM, Strain/Indicator: TA98, Metabolic Activation: RAT, LIVER, S-9, AROCLOR 1254, Method: STANDARD PLATE) was “active; positive”. The mutagenic call [3] was “inactive; negative”, the mutagenic call (Test System: AMES SALMONELLA TYPHIMURIUM, Strain/Indicator: TA100, Metabolic Activation: RAT, LIVER, S-9, AROCLOR 1254, Method: STANDARD PLATE) was “active; positive” and the mutagenic call [6] was “active; positive”. The mutagenic call (Test System: E. COLI, Strain/Indicator: WP2 UVRA, Metabolic Activation: HAMSTER, LIVER, S-9, AROCLOR 1254, Method: STANDARD PLATE) was “inactive; negative”, the mutagenic call (Test System: E. COLI, Strain/Indicator: WP2 UVRA, Metabolic Activation: HAMSTER, LIVER, S-9, Method: STANDARD PLATE) was “inactive; negative” and the mutagenic call (Test System: E. COLI, Strain/Indicator: WP2 UVRA, Metabolic Activation: MOUSE, LIVER, S-9, AROCLOR 1254, Method: STANDARD PLATE) was “inactive; negative”. For the same compound, the mutagenic call (Test System: E. COLI, Strain/Indicator: WP2 UVRA, Metabolic Activation: MOUSE, LIVER, S-9, Method: STANDARD PLATE) was “inactive; negative”, the mutagenic call (Test System: E. COLI, Strain/Indicator: WP2 UVRA, Metabolic Activation: NONE, Method: STANDARD PLATE) was “inactive; negative” and the mutagenic call (Test System: E. COLI, Strain/Indicator: WP2 UVRA, Metabolic Activation: RAT, LIVER, S-9, AROCLOR 1254, Method: STANDARD PLATE) was “inactive; negative”. The mutagenic call (Test System: E. COLI, Strain/Indicator: WP2 UVRA, Metabolic Activation: RAT, LIVER, S-9, Method: STANDARD PLATE) was “inactive; negative”.
